Laboratory results taken from US20120095036A1, “NOVEL SUBSTITUTED INDAZOLE AND AZA-INDAZOLE DERIVATIVES AS GAMMA SECRETASE MODULATORS” (priority 2009, published 2012).

Key:
Aβ42 [1] = experiment: Method 1: Aβ42 sandwich ELISA on media of SKNBE2 cells carrying APP 695 wild type (γ-secretase-modulating activity); type: cell-based; conditions: SKNBE2 cells APP 695 wild type, 18 hours
Method: (§1) Screening was carried out using SKNBE2 cells carrying the APP 695—wild type, grown in Dulbecco's Modified Eagle's Medium/Nutrient mixture F-12 (DMEM/NUT-mix F-12) (HAM) provided by Gibco (cat no. 31330-38) containing 5% Serum/Fe supplemented with 1% non-essential amino acids. Cells were grown to near confluency.
(§2) The screening was performed using the assay as described in Citron et al (1997) Nature Medicine 3: 67. Briefly, cells were plated in a 96-well plate at about 10^5 cells/ml one day prior to addition of compounds. Compounds were added to the cells in Ultraculture (Lonza, BE12-725F) supplemented with 1% glutamine (Invitrogen, 25030-024) for 18 hours. The media were assayed by two sandwich ELISAs, for Aβ42 and Aβtotal. Toxicity of the compounds was assayed by WST-1 cell proliferation reagent (Roche, 1 644 807) according to the manufacturer's protocol.
To quantify the amount of Aβ42 in the cell supernatant, commercially available Enzyme-Linked-Immunosorbent-Assay (ELISA) kits were used (Innotest® β-Amyloid(1-42), Innogenetics N.V., Ghent, Belgium). The Aβ42 ELISA was performed essentially according to the manufacturer's protocol. Briefly, the standards (dilutions of synthetic A131-42) were prepared in polypropylene Eppendorf with final concentrations of 8000 down to […] (½ dilution step). Samples, standards and blanks (100 μl) were added to the anti-Aβ42-coated plate supplied with the kit (the capture antibody selectively recognizes the C-terminal end of the antigen). The plate was allowed to incubate 3 h at 25° C. in order to allow formation of the antibody-amyloid complex. Following this incubation and subsequent wash steps a selective anti-A13-antibody conjugate (biotinylated 3D6) was added and incubated for a minimum of 1 hour in order to allow formation of the antibody-Amyloid-antibody-complex. After incubation and appropriate wash steps, a Streptavidine-Peroxidase-Conjugate was added, followed 30 minutes later by an addition of 3,3′,5,5′-tetramethylbenzidine (TMB)/peroxide mixture, resulting in the conversion of the substrate into a coloured product. This reaction was stopped by the addition of sulfuric acid (0.9 N) and the colour intensity was measured by means of photometry with an ELISA-reader with a 450 nm filter.
(§3) To obtain the values reported in Table 3a, the sigmoidal dose response curves were analysed by computerised curve-fitting, with percent of inhibition plotted against compound concentration. A 4-parameter equation (model 205) in XLfit was used to determine the IC50. The top and the bottom of the curve were fixed to 100 and 0, respectively, and the hill slope was fixed to 1. The IC50 represents the concentration of a compound that is required for inhibiting a biological effect by 50% (Here, it is the concentration where Aβ peptide level is reduced by 50%).

Aβtotal [2] = experiment: Method 2: Aβtotal Alphalisa on supernatant of SKNBE2 cells carrying APP 695 wild type; type: cell-based; conditions: SKNBE2 cells APP 695 wild type, overnight
Method: as §1, with “Invitrogen” for “Gibco”, “10371-029)” for “31330-38)”, “acids, 1-glutamine 2 mM, Hepes 15 mM, penicillin 50 U/ml (units/ml) en streptomycin 50 μg/ml.” for “acids.”
(§4) The screening was performed using a modification of the assay as described in Citron et al (1997) Nature Medicine 3: 67. Briefly, cells were plated in a 384-well plate at 10^4 cells/well in Ultraculture (Lonza, BE12-725F) supplemented with 1% glutamine (Invitrogen, 25030-024), 1% non-essential amino acid (NEAA), penicillin 50 U/ml en streptomycin 50 μg/ml in the presence of test compound at different test concentrations. The cell/compound mixture was incubated overnight at 37° C., 5% CO2, The next day the media were assayed by two sandwich immuno-assays, for Aβ42 and Aβtotal.
(§5) Aβtotal and Aβ42 concentrations were quantified in the cell supernatant using the Aphalisa technology (Perkin Elmer). Alphalisa is a sandwich assay using biotinylated antibody attached to streptavidin coated donorbeads and antibody conjugated to acceptor beads. In the presence of antigen, the beads come into close proximity. The excitation of the donor beads provokes the release of singlet oxygen molecules that trigger a cascade of energy transfer in the acceptor beads, resulting in light emission. To quantify the amount of Aβ42 in the cell supernatant, monoclonal antibody specific to the C-terminus of Aβ42 (JRF/cAβ42/26) was coupled to the receptor beads and biotinylated antibody specific to the N-terminus of AB (JRF/AβN/25) was used to react with the donor beads. To quantify the amount of Aβtotal in the cell supernatant, monoclonal antibody specific to the N-terminus of AB (JRF/AβN/25) was coupled to the receptor beads and biotinylated antibody specific to the mid region of Aβ (biotinylated 4G8) was used to react with the donor beads.
(§6) To obtain the values reported in Table 3b, the data were calculated as percentage of the maximum amount of amyloid Beta 42 measured in the absence of the test compound. The sigmoidal dose response curves were analyzed using non-linear regression analysis with percentage of the control plotted against the log concentration of the compound. A 4-parameter equation was used to determine the IC50.

Aβtotal [3] = experiment: Method 1: Aβtotal sandwich ELISA on media of SKNBE2 cells carrying APP 695 wild type; type: cell-based; conditions: SKNBE2 cells APP 695 wild type, 18 hours
Method: as §1, §2
To quantify the amount of Aβtotal in the cell supernatant, samples and standards were added to a 6E10-coated plate. The plate was allowed to incubate overnight at 4° C. in order to allow formation of the antibody-amyloid complex. Following this incubation and subsequent wash steps a selective anti-AB-antibody conjugate (biotinylated 4G8) was added and incubated for a minimum of 1 hour in order to allow formation of the antibody-Amyloid-antibody-complex. After incubation and appropriate wash steps, a Streptavidine-Peroxidase-Conjugate was added, followed 30 minutes later by an addition of Quanta Blu fluorogenic peroxidase substrate according to the manufacturer's instructions (Pierce Corp., Rockford, Il).
as §3

Aβ42 [4] = experiment: Method 2: Aβ42 Alphalisa on supernatant of SKNBE2 cells carrying APP 695 wild type; type: cell-based; conditions: SKNBE2 cells APP 695 wild type, overnight
Method: as §1, with “Invitrogen” for “Gibco”, “10371-029)” for “31330-38)”, “acids, 1-glutamine 2 mM, Hepes 15 mM, penicillin 50 U/ml (units/ml) en streptomycin 50 μg/ml.” for “acids.”
as §4, §5, §6

| SMILES | IC50 (Aβ42 [1]; Homo sapiens) [nM] | IC50 (Aβtotal [2]; Homo sapiens) [nM] | IC50 (Aβtotal [3]; Homo sapiens) [nM] | IC50 (Aβ42 [4]; Homo sapiens) [nM] | melting point [°C] | IC50 (Aβ42 [1]) [nM] | IC50 (Aβtotal [2]) [nM] | IC50 (Aβtotal [3]) [nM] | IC50 (Aβ42 [4]) [nM] |
| --- | --- | --- | --- | --- | --- | --- | --- | --- | --- |
| COc1cc(Nc2cccc3c(C)n(-c4ccc(F)cc4F)nc23)ccc1-n1cnc(C)c1 [Compound 16, 2-(2,4-difluorophenyl)-N-[3-methoxy-4-(4-methyl-1H-imidazol-1-yl)phenyl]-3-methyl-2H-indazol-7-amine] | 190 | 8510 | > 3000 | 54 |  |  |  |  |  |
| COc1cc(Nc2cccc3cn(CC(F)(F)F)nc23)ccc1-n1cnc(C)n1 [Compound 18, N-[3-methoxy-4-(3-methyl-1H-1,2,4-triazol-1-yl)phenyl]-2-(2,2,2-trifluoroethyl)-2H-indazol-7-amine] | 479 | > 10000 | > 3000 | 331 |  |  |  |  |  |
| COc1cccc(-n2cc3cccc(Nc4ccc(-n5cnc(C)n5)c(OC)c4)c3n2)c1 [Compound 19, N-[3-methoxy-4-(3-methyl-1H-1,2,4-triazol-1-yl)phenyl]-2-(3-methoxyphenyl)-2H-indazol-7-amine] | 126 | 3020 | > 3000 | 123 |  |  |  |  |  |
| CCOc1cc(C)c(-n2nc3c(Nc4ccc(-n5cnc(C)n5)c(OC)c4)cccc3c2C)cc1C(C)C [Compound 20, 2-[4-ethoxy-2-methyl-5-(1-methylethyl)phenyl]-N-[3-methoxy-4-(3-methyl-1H-1,2,4-triazol-1-yl)phenyl]-3-methyl-2H-indazol-7-amine] | 67 | 6030 | > 3000 | 59 |  |  |  |  |  |
| COc1cc(Nc2nc(C)cc3cn(CC(F)(F)F)nc23)ccc1-n1cnc(C)n1 [Compound 21, N-[3-methoxy-4-(3-methyl-1H-1,2,4-triazol-1-yl)phenyl]-5-methyl-2-(2,2,2-trifluoroethyl)-2H-pyrazolo[3,4-c]pyridin-7-amine] |  | > 3000 |  | > 3000 | 203.4 |  |  |  |  |
| Cc1ncc(-c2ccc(Nc3cccc4cn(C)nc34)cc2)o1 [Compound 24, 2-methyl-N-[4-(2-methyl-5-oxazolyl)phenyl]-2H-indazol-7-amine] |  | > 3000 |  | > 3000 | 168.7 |  |  |  |  |
| Cc1ncc(-c2ccc(Nc3cccc4cn(CC5CC5)nc34)cc2)o1 [Compound 25, 2-(cyclopropylmethyl)-N-[4-(2-methyl-5-oxazolyl)phenyl]-2H-indazol-7-amine .2HCl] |  |  |  |  |  | 1740 | 49000 | > 150000 | 1260 |
| Cc1ncc(-c2ccc(Nc3cccc4cn(C5CCOCC5)nc34)cc2)o1 [Compound 28, N-[4-(2-methyl-5-oxazolyl)phenyl]-2-(tetrahydro-2H-pyran-4-yl)-2H-indazol-7-amine] |  |  |  | > 3000 | 224.8 |  |  |  |  |
| CCOc1cc(C)c(-n2nc3c(Nc4ccc(-c5cnc(C)o5)cc4)cccc3c2C)cc1C(C)C [Compound 30, 2-[4-ethoxy-2-methyl-5-(1-methylethyl)phenyl]-3-methyl-N-[4-(2-methyl-5-oxazolyl)phenyl]-2H-indazol-7-amine] | 127 | > 10000 | > 3000 | 129 |  |  |  |  |  |
| Cc1ncc(-c2ccc(Nc3cccc4c(C)n(-c5ccc(F)cc5)nc34)cc2)o1 [Compound 31, 2-(4-fluorophenyl)-3-methyl-N-[4-(2-methyl-5-oxazolyl)phenyl]-2H-indazol-7-amine .1.5HCl] |  |  |  |  |  | 126 | > 10000 | > 3000 | 37 |
| Cc1ncc(-c2ccc(Nc3cccc4c(C)n(-c5ccc(F)cc5F)nc34)cc2)o1 [Compound 33, 2-(2,4-difluorophenyl)-3-methyl-N-[4-(2-methyl-5-oxazolyl)phenyl]-2H-indazol-7-amine] |  | > 10000 |  | 166 | 139.9 |  |  |  |  |
| COc1cc(Nc2cccc3cn(CC4CC4)nc23)ccc1-c1ocnc1C [Compound 37, 2-(cyclopropylmethyl)-N-[3-methoxy-4-(4-methyl-5-oxazolyl)phenyl]-2H-indazol-7-amine .2HCl] |  |  |  |  |  | 2660 | > 3000 | > 3000 | > 3000 |
| COc1cccc(-n2nc3c(Nc4ccc(-c5ocnc5C)c(OC)c4)cccc3c2C)c1 [Compound 39, N-[3-methoxy-4-(4-methyl-5-oxazolyl)phenyl]-2-(3-methoxyphenyl)-3-methyl-2H-indazol-7-amine .1.9HCl] |  |  |  |  |  | 29 | > 10000 | > 3000 | 30 |
| COc1cc(Nc2nc(C)cc3cn(CC(F)(F)F)nc23)ccc1-c1cnc(C)o1 [Compound 41, N-[3-methoxy-4-(2-methyl-5-oxazolyl)phenyl]-5-methyl-2-(2,2,2-trifluoroethyl)-2H-pyrazolo[3,4-c]pyridin-7-amine] |  | > 3000 |  | > 3000 | 213.8 |  |  |  |  |
| Cc1ncoc1-c1ccc(Nc2cccc3c(C)n(-c4ccc(F)cc4)nc23)cn1 [Compound 46, 2-(4-fluorophenyl)-3-methyl-N-[6-(4-methyl-5-oxazolyl)-3-pyridinyl]-2H-indazol-7-amine] | 199 | 4270 | > 3000 | 66 |  |  |  |  |  |
| CC(C)c1ncc(-c2ccc(Nc3cccc4cn(CC(F)(F)F)nc34)cc2)o1 [Compound 48, N-[4-[2-(1-methylethyl)-5-oxazolyl]phenyl]-2-(2,2,2-trifluoroethyl)-2H-indazol-7-amine] |  | > 3000 |  | > 3000 | 103.9 |  |  |  |  |
| COc1cc(Nc2cc(C)nc3cn(CC(F)(F)F)nc23)ccc1-c1cnc(C)o1 [Compound 51, N-[3-methoxy-4-(2-methyl-5-oxazolyl)phenyl]-5-methyl-2-(2,2,2-trifluoroethyl)-2H-pyrazolo[4,3-b]pyridin-7-amine] |  | 5250 |  | 234 | 211.5 |  |  |  |  |
| Cc1cn(-c2ccc(Nc3cccc4cn(CC(F)(F)F)nc34)cc2F)cn1 [Compound 52, N-[3-fluoro-4-(4-methyl-1H-imidazol-1-yl)phenyl]-2-(2,2,2-trifluoroethyl)-2H-indazol-7-amine] |  | > 10000 |  | 339 | 144.9 |  |  |  |  |
